Assay results published in PMC5556071, “ATR inhibition facilitates targeting of leukemia dependence on convergent nucleotide biosynthetic pathways” (Nature Communications, 2017).
Read-outs that look alike come from different tables or passages of the source.

Tests used:
CEM cells [1] = assay: Cell cycle analysis of asynchronous cells by flow cytometry (S-phase population, S-phase arrest); format: cell-based, human; conditions: for percentage of cell population in S-phase: asynchronous CEM, 12 h, VE-822 1 µM, DI-82 1 µM
Method: Cell cycle histograms. Cells were plated at a density of 0.5 x 10^6 cells/mL in respective media or drug treated media. Following 24 h incubation, cells were harvested and washed twice with PBS twice before staining with 0.5 ml of propidium iodide (Calbiochem, #P3566, 1 µg/mL) solution containing Ribonuclease A and 0.3% Triton-X 100. The samples were protected from light before acquisition by flow cytometry.
Cell cycle kinetics and cell cycle progression by intracellular detection of DNA-incorporated 5-ethynyl-2-deoxyuridine (EdU). CEM T-ALL cells were plated at a density of 0.5 x 10^6 cells/mL. Cells were pulsed with 10 µM EdU (Invitrogen) for 1 h, washed twice with PBS, and released in fresh media containing 5 µM deoxyribonucleosides, with and without drugs. Cells were collected at different time points following release in fresh media, and then fixed with 4% paraformaldehyde and permeabilized using saponin perm/wash reagent (Invitrogen). Cells were then stained with azide-Alexa Fluor 647 by Click reaction according to manufacturer’s protocol (Invitrogen; Click-iT EdU Flow cytometry kit, #C10634). […]

CEM cells [2] = assay: Apoptosis assay, Annexin V and PI staining; format: cell-based, human; conditions: 500 nM 3-AP, 1 µM VE-822, 1 µM dCKi, 24 h
Method: (§1) Apoptosis and cell death were assayed using Annexin V-FITC and PI according to manufacturer’s instructions (FITC Annexin V Apoptosis Detection Kit, BD Sciences, #556570). […]
(§2) Annexin V staining. Cells were treated with the indicated treatments for 24 or 72 h, then collected and washed twice with 1 mL of FACS buffer (2% FBS in PBS). Induction of apoptosis and cell death were assayed by staining the cells with Annexin V-FITC and PI according to manufacturer’s instructions (FITC Annexin V Apoptosis Detection Kit, BD Sciences, #556570).
(§3) FACS analysis. All flow cytometry data were acquired on five-laser LSRII cytometers (BD) for analysis, and analyzed using FlowJo software (Tree Star). […]

[3] = test system: dasatinib-resistant p185BCR-ABL Arf–/– pre-B-ALL cells; assay: Apoptosis assay, Annexin V and PI staining; format: cell-based, mouse; conditions: 350 nM 3-AP, 100 nM VE-822, 1 µM dCKi, 72 h
Method: as §1, §2, §3

CEM cells [4] = assay: Phospho-histone 3 (H3 pS10) staining, flow cytometry; format: cell-based, human; conditions: 500 nM 3-AP, 1 µM VE-822, 1 µM dCKi, 24 h
Method: Phospho-histone 3 staining. Cells were treated with drug combinations of three drugs. 24 h following treatment, cells were fixed and permeabilized with 1% PFA and 1X Perm/wash solution respectively.
Following fixation and permeabilization, cells were stained intracellularly with pH3 Ser10 antibody conjugated to AF647 (Cell signaling, #12230). Cells were then washed with PBS, stained with 0.5 mL of DAPI for DNA content (1 µg/mL in 2% FBS in PBS) before data acquisition. […]
FACS analysis. All flow cytometry data were acquired on five-laser LSRII cytometers (BD) for analysis, and analyzed using FlowJo software (Tree Star). The cell cycle durations were calculated using equations for multiple time-point measurements according to previously published methods (Terry and White, 2006).

[5] = Plasma pharmacokinetics after single dose oral co-administration; format: in vivo, C57BL/6 mice
Method: 3-AP, dCKi, VE-822 plasma concentrations were assessed at 0.5, 1, 2, 4, 6, 12 and 24 h following oral administration. Blood samples were collected in heparin-EDTA tubes by the retro-orbital technique and spun down to collect the supernatants. Four parts of methanol were added to plasma samples to precipitate proteins, and the supernatant was collected. Twenty microliter samples were injected onto a reverse phase column equilibrated in water 0.1% formic acid for LC-MS/MS-MRM analysis in positive ion mode. Plasma concentrations were determined by comparison to previously generated standard curves. A population pharmacokinetic modeling (NONMEM v. 7.2) with first-order conditional estimation (FOCE) was used to characterize the Cmax, half-life, and area under the curve (AUC) for 3-AP, dCKi, and VE-822. 3-AP and VE-822 were best described with a one compartment model while dCKi was best described by a two-compartment model. All three drugs were well described with first order absorption and a proportional error model. Clearance and volume were scaled by weight. […]
Plasma collection and pharmacokinetic assays. Blood was collected in heparin-EDTA tubes by retro-orbital technique at time points 0.25, 1, 6, and 24 h time points from the first set of mice and 0.5, 4, and 12 h from the second set of mice. Blood samples were spun at 2000 x g for 15 min and the plasma supernatants were collected. All plasma samples were frozen down at –20 °C before sample processing. The stock solutions of 3-AP, VE-822, DI-82, 3-AP analog (NSC 266749), VE-821 (Selleckchem), DI-39 were prepared individually by dissolving the appropriate amount of each drug in a known volume of dimethyl sulfoxide (DMSO) to a 10 mM concentration and were stored at –20 °C before use. The 3-AP analog, VE-821 and DI-39 (internal standards) were diluted to 200 nM in methanol to make the internal solution. The calibration standards were prepared by spiking working stock solutions of 3-AP, VE-822 and DI-82 in plasma from untreated mice to give 0.01-10 pmol/µL range. Each 20 µL calibration standard sample was mixed with 60 µL of internal solution (methanol with 200 nM internal standards) and vortexed for 30 s. Following centrifugation at 15,000 x g for 10 min, approximately 60 µL of sample was carefully transferred into HPLC injector vials for LC-MS/MS-MRM analysis.
Plasma samples were processed the same way as the calibration standard samples. 20 μL samples were injected onto a reverse phase column, (Thermo Scientific Hypersil GOLD column 3.0 µm; 2.1 x 100 mm) equilibrated in water/formic acid, 100/0.1, and eluted (200 μL/min) with an increasing concentration of solvent […]
The effluent from the column was directed to the Agilent Jet Stream ion source connected to the triple quadrupole mass spectrometer (Agilent 6460) operating in the multiple reaction monitoring (MRM) mode using previously optimized settings. The following drug precursor→fragment ion transitions were used: 3-AP

[6] = cells harvested from bone marrow of a treated leukemic mouse
[7] = cells prior to inoculation in mice
[8] = C57BL/6, mouse, 40 mg/kg, 3-AP 15, VE-822 40, dCKi 50 mg kg−1
[9] = 3-AP 15, VE-822 40, dCKi 50 mg kg−1

Row | SMILES | percentage of cell population in S-phase (CEM cells [1]; + dNTP (10 µM)) | percentage of cell population in S-phase (CEM cells [1]; – dNTP) | Annexin V+ cells (apoptosis induction) (CEM cells [2]) | Annexin V+ cells (apoptosis induction) [3, 6] | Annexin V+ cells (apoptosis induction) [3, 7] | H3 pS10 plot, upper percentage (gate not given) (CEM cells [4]) | Cmax [5, 8] | half-life [5, 8] | AUC ([5]; C57BL/6, mouse, 40 mg/kg, 3-AP 15, VE-822 40, dCKi 50 mg kg−1, read-out: AUC) | AUC [5, 9] | Cmax [5, 9] | t1/2 [5, 9] | concentration inducing S-phase arrest (CEM cells [1]; CEM, 24 h)
1 | CNCc1ccc(-c2cc(-c3nc(-c4ccc(S(=O)(=O)C(C)C)cc4)cnc3N)on2)cc1 [VE-822] | 37% | 42% | 10.3% | 12.9% | 20.7% | 6.5% | 1800 ± 200 nM | 17 ± 1 h | 55 ± 2 µM·h | – | – | – | –
2 | COc1ccc(-c2nc([C@@H](C)Sc3nc(N)cc(N)n3)c(C)s2)cc1OCCNS(C)(=O)=O [dCKi] | 31% | 30% | 11.1% | 11.0% | 20.4% | 2.4% | – | – | – | 63 ± 4 µM·h | 6400 ± 700 nM | 8.5 ± 3.0 h | –
3 | NC(=S)N/N=C/c1ncccc1N [3-AP] | – | – | 31.0% | 22.0% | 32.6% | 1.8% | – | – | – | 9.2 ± 1.8 µM·h | 2300 ± 700 nM | 3.3 ± 1.0 h | 0.5 µM
